{"source": "patent US8586638B2", "about": "“Parakeratosis inhibitor and skin preparation for external use” (priority 2003, dated 2013)", "key": {"[1]": {"tested_on": "pores on the cheek of healthy male subjects", "assay": "Effect of shrinking human pores: replica evaluation of cheek pores", "type": "in vivo", "settings": "for Replica Evaluation (mean of n = 5), difference of pore size score before/after application: twice a day for a month, cheek", "description": "An experiment of application of sample twice a day for a month on the cheek of healthy male subjects, was conducted with each group consisting of 5 individuals. 3 weight % solution of the glycine derivatives in accordance with the invention 1 (including 15 weight % of ethanol) was prepared. pH was regulated to the range between 7.0 and 7.5, by using hydrochloric acid and/or sodium hydroxide. Control was 15 weight % ethanol solution. Said 3 weight % solution was applied to one side and said control solution was applied to the other side.\nReplicas were prepared prior to and after the application to observe the change of form of pores in the same spot under a three-dimensional laser scanning microscope. The size of pores was evaluated visually 13 steps from 1 to 13 (larger number indicates larger pore size), and the difference between the resulted evaluations before/after the application experiment was then calculated to study the effectiveness of each specimen.\nAn experiment of application of sample twice a day for a month on the cheek of healthy male subjects, was conducted with each group consisting of 5 individuals. 3 weight % solution of the glycine derivatives and the salts thereof as well as the aminosulfuric acid derivatives and the salts thereof in accordance with the invention 2 (including 15 weight % of ethanol), 2 weight % solution of ACES (including 15 weight % of ethanol), 3 weight % solution of CAPS (including 15 weight % of ethanol), and 3 weight % solution of CAPSO (including 15 weight % of ethanol) were prepared. pH was regulated to the range between 7.0 and 7.5, by using hydrochloric acid and/or sodium hydroxide. 15 weight % ethanol solution was used as control. Said sample solutions was applied to one side, and said control solution was applied to the other side."}, "[2]": {"tested_on": "skin roughness caused by oleic acid on the back of hairless mice", "assay": "Inhibitory effect on skin roughness by the application of oleic acid (TEWL value)", "type": "in vivo, hairless mice (HR-1)", "parameters": "ΔTEWL: unit not given here", "method_in_brief": "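HR-1 hairless mice (four per group) received 100 μl 10 weight % oleic acid in ethanol on the back, then 100 μl test solution, repeated for 3 days. TEWL measured the day after application and averaged; delta-TEWL versus control solution reflects skin roughness, larger meaning worse.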"}, "[3]": {"tested_on": "parakeratosis and skin roughness caused by oleic acid on the back of hairless mice", "assay": "Parakeratosis inhibition effect test: oleic acid applied to the back of hairless mice, visual skin roughness and parakeratosis level", "type": "in vivo, hairless mice (HR-1)", "parameters": "key to Evaluation Visual (mean of 4 mice), skin roughness: 0.0 = no roughness, 2.0 = control application; 0.25 steps", "settings": "for Evaluation Parakeratosis (mean of 4 mice): range 1.0 to 3.0, higher = severer, control 2.0; for Evaluation Visual (mean of 4 mice), skin roughness: score 0.0 no roughness, 2.0 control", "method_in_brief": "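Hairless mice (HR-1) received 100 microliters of 10 weight % oleic acid in ethanol on the back, followed by 100 microliters of test solution (aqueous, with 30 weight % ethanol, pH 7.0 to 7.5), repeated for 3 days. The next day, CCD-camera images were scored visually for roughness (control 2.0, none 0.0), and tape-stripped haematoxylin-stained stratum corneum was graded for parakeratosis from 1.0 to 3.0 in 0.25 steps.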"}, "[4]": {"tested_on": "skin surface stratum corneum of human cheek", "assay": "Parakeratosis inhibition effect on human skin by N-ethylglycine: number of nuclear cells of skin surface stratum corneum", "type": "in vivo", "settings": "3 weight % N-ethylglycine side against control side (15 weight % ethanol); area 12 mm by 34 mm; FIG. 2", "excerpt": "(§1) In the pore-shrinking effect test on human skin as described in the embodiment 5, the application of N-ethylglycine was further studied about the amelioration of parakeratosis by measuring the number of nuclear cell of skin surface stratum corneum, obtained by means of a tape. Replica was used to actually measure the pore size within the area of 3.34 mm by 3.34 mm to evaluate the pore-shrinking effect.\n(§2) More specifically, the skin surface stratum corneum was sampled by means of carton tape (Nichiban, Co. Ltd.) only after the application of sample, Hoechst 33342 solution dissolved in PBS to 0.1 mg/ml was then added, and after the sample was placed in a dark place for 20 minutes, the number of nuclear cells within the area of 12 mm by 34 mm by using a fluorescent microscope. For the replicas made by using silflo (Flexico, Co. Ltd.) was measured before and after the application to capture three-dimensional surface form within the same area (3.34 mm by 3.34 mm) with a confocal microscope (HD100D, Lasertech) to measure and compare the size of pores (surface area value)."}, "[5]": {"tested_on": "pores on the cheek of healthy male subjects", "assay": "Pore-shrinking effect on human skin by N-ethylglycine: pore surface area by replica analysis", "type": "in vivo", "settings": "3 weight % N-ethylglycine side; control 92%; area 3.34 mm by 3.34 mm; FIG. 3", "excerpt": "as §1, §2"}, "[6]": {"tested_on": "pores (conical portion) on the cheek of healthy adult males", "assay": "Effect of shrinking human pores by glycylglycine: conical portion surface area from cheek replica", "type": "in vivo", "settings": "glycylglycine applied side compared with ethanol applied side"}, "[7]": {"tested_on": "pores (conical portion) on the cheek of healthy adult males", "assay": "Effect of shrinking human pores by glycylglycine: conical portion surface area from cheek replica", "type": "in vivo", "description": "Since we obtained a good result from glycylglycine in the embodiment 2, we conducted an application experiment of glycylglycine three times a day (0.1 milliliter each) on the cheek of 21 healthy adult males (age of 20s to 50s, average 40.4 years old) for a period of one month. 1.6% (w/w) glycylglycine solution (pH regulated to 7.0) including 15% (w/w) ethanol, and 15% (w/w) ethanol solution (control) was prepared, for applying the same to each one side cheek.\nBy obtaining a cheek replica (Silflo) before and after the continuous application, the surface area of conical portion was measured by a three-dimensional analysis system (Okuri et al., Japan Society of Dermatology Annual Meeting Program/Abstract, 2004, 104, pp. 601) by means of wide view confocal microscope HD100D (lasertech).\nFor the surface area recognized as pore portion within the replica measuring area of 3.34 mm by 3.34 mm, the conical portion surface area (mm2) and the ratio thereof before and after the application is shown in Table 3. From Table 3, The ratio among the panel that the surface area of glycylglycine applied side was decreased more than 10% when compared to the control application side (glycylglycine side was shrunk), the panel that the variation was within 10% and no noticeable change observed (no change), and the panel that the control application side was decreased more than 10% (other side was shrunk) was 13:5:3.\nWhen averaging the surface area ratio before and after the application, the side of control solvent solution was 102%, while the side of glycylglycine was reduced to 89%. By evaluating this surface area ratio with t-analysis, we obtained p=0.019, indicating significant shrinkage of pore area in the glycylglycine applied side (see FIG. 1)."}, "[8]": {"settings": "Table 4, sample 3 weight % in aqueous 30 weight % ethanol (hydantoic acid: 20 weight % ethanol)"}, "[9]": {"settings": "sample 3 weight % in aqueous 30 weight % ethanol, after 10 weight % oleic acid, 3 days"}}, "note": "Several values for one entry are separate records, joined by “and”; a condition that tells them apart may be missing. Equal entries are not always repeated. Where a SMILES comes first, the peptide text is derived from it."}
{"molecule": "CCNCC(=O)O", "note": "[N-ethylglycine]", "values": [{"measurement": "Replica Evaluation (mean of n = 5), difference of pore size score before/after application", "setting": "[1]; Table 5, 3.0 weight % solution (15 weight % ethanol), control 0.3", "result": "−1.4"}, {"measurement": "effect of pore-shrinking (conclusion from Table 5)", "setting": "[1]; human cheek, fifth embodiment", "result": "demonstrated the effect of pore-shrinking"}, {"measurement": "decrease of delta-TEWL value as compared to the control solution (conclusion from Table 6)", "setting": "[2]; hairless mice, oleic acid, seventh embodiment", "result": "significant decrease of delta-TEWL value"}, {"measurement": "ΔTEWL", "setting": "[2]; sample 3 weight %, after 10 weight % oleic acid, 3 days, four mice per group, larger = severer roughness, control 12.0", "result": 9.0}, {"measurement": "Evaluation Parakeratosis (mean of 4 mice)", "setting": "[3]; [8]", "result": 1.2}, {"measurement": "Evaluation Visual (mean of 4 mice), skin roughness", "setting": "[3]; [8]", "result": 1.3}, {"measurement": "effect of inhibiting parakeratosis (conclusion from Table 4)", "setting": "[3]; hairless mice, oleic acid, fourth embodiment", "result": "have the effect of inhibiting parakeratosis"}, {"measurement": "number of nuclear cells of skin surface stratum corneum", "setting": "[4]", "result": "fewer number of nuclear cells"}, {"measurement": "surface area of pores, average as compared to pre-application status", "setting": "[5]", "result": 73, "unit": "%"}]}
{"molecule": "NCC(=O)NCC(=O)O", "note": "[glycylglycine] (H-Gly-Gly-OH)", "values": [{"measurement": "photographic evaluation of conspicuous pores", "setting": "[6]", "result": "ameliorated"}, {"measurement": "Replica Evaluation (mean of n = 5), difference of pore size score before/after application", "setting": "[1]; 3 weight % solution (15 weight % ethanol), 13 steps, larger = larger pore, control 0.2", "result": "−1.0"}, {"measurement": "pore-shrinking effect (conclusion from Table 2)", "setting": "[1]; human cheek, second embodiment", "result": "pore-shrinking effect was observed"}, {"measurement": "average surface area ratio before and after the application", "setting": "[7]; glycylglycine side, control solvent side 102%, p=0.019", "result": 89, "unit": "%"}, {"measurement": "conical portion surface area after application", "setting": "[7]; individual panels #1-21, 1.6% (w/w) glycylglycine, 15% ethanol, three times a day, one month, area 3.34 mm by 3.34 mm", "result": "1.2057 mm^2 and 1.3727 mm^2 and 1.5166 mm^2 and 1.4427 mm^2 and 1.2368 mm^2 and 0.6078 mm^2 and 0.3675 mm^2 and 0.4880 mm^2 and 1.1250 mm^2 and 0.5977 mm^2 and 1.3739 mm^2 and 0.2691 mm^2 and 1.2348 mm^2 and 1.2053 mm^2 and 1.0498 mm^2 and 0.3669 mm^2 and 0.6778 mm^2 and 1.0541 mm^2 and 0.5801 mm^2 and 0.6728 mm^2 and 1.3879 mm^2"}, {"measurement": "conical portion surface area ratio after/before", "setting": "[7]; individual panels #1-21, 1.6% (w/w) glycylglycine, three times a day, one month", "result": "0.8948 and 0.9818 and 1.0512 and 1.0627 and 1.0535 and 0.7494 and 0.5279 and 0.7405 and 0.7878 and 0.6357 and 0.8594 and 0.4111 and 1.3932 and 0.8940 and 1.2831 and 0.5594 and 0.7676 and 0.8700 and 1.2931 and 0.7612 and 1.0131"}, {"measurement": "conical portion surface area ratio after/before, mean", "setting": "[7]; mean of 21 panels (S.D. 0.2597), 1.6% (w/w) glycylglycine, control mean 1.017", "result": 0.8853}, {"measurement": "effect of inhibiting parakeratosis (conclusion from Table 1)", "setting": "[3]; hairless mice, oleic acid, first embodiment", "result": "have the effect of inhibiting parakeratosis"}, {"measurement": "Evaluation Parakeratosis (mean of 4 mice)", "setting": "[3]; [9]", "result": 1.2}, {"measurement": "Evaluation Visual (mean of 4 mice), skin roughness", "setting": "[3]; [9]", "result": 1.2}]}
